# Measurements published in patent publication US6350909B1, “Methoxymino-phenylacetamide derivatives and their utilization as pesticides” (Bayer Aktiengesellschaft, priority 1998, dated 2002).
compound,measurement,value
"COCC(=O)NC(=O)C(=NOC)c1ccccc1CO/N=C(\C)c1ccc(C(F)(F)F)cc1 [Example 1, 2-methoxy-N-(methoxyimino-{2-[1-(4-trifluoromethylphenyl)-ethylideneaminooxymethyl]-phenyl}-acetyl)-acetamide]",melting point,134 to 138 °C
"CON=C(C(=O)NC(=O)CCl)c1ccccc1CO/N=C(\C)c1ccc(C(F)(F)F)cc1 [Example 2, 2-chloro-N-(methoxyimino-{2-[1-(4-trifluoromethylphenyl)-ethylideneaminooxymethyl]-phenyl}-acetyl)-acetamide]",melting point,92 °C (dec.)
